The molecules below were run on HIV in the HTLV-1 transformed cell line MT-4 (assay: organism not typed). Conditions: MT4, 96 h, MT-4 cells; luciferase/cell titer glo readout after 96 hours; 10 point dose response.
Format: cell-based
In the case of `Cc1c(-c2c(C)c3c(c(C)c2[C@H](OC(C)(C)C)C(=O)O)CN(C(=O)c2cc(F)cc(Cl)c2)C3)cc(F)c2c1CCCO2` (atropisomer, axis not shown; (M)) [Example 181, (S)-2-(tert-butoxy)-2-((M)-2-(3-chloro-5-fluorobenzoyl)-6-(8-fluoro-5-methylchroman-6-yl)-4,7-dimethylisoindolin-5-yl)acetic acid], the IC50 is reported as 5 nM.
Work on `COc1cncc(C(=O)N2Cc3c(C)c(-c4ccc(C)cc4)c([C@H](OC(C)(C)C)C(=O)O)c(C)c3C2)c1` [Example 235, (S)-2-(tert-butoxy)-2-(2-(5-methoxynicotinoyl)-4,7-dimethyl-6-(p-tolyl)isoindolin-5-yl)acetic acid] yielded an IC50 of 5 nM.
With `COc1cccc(C(=O)N2Cc3c(C)c(-c4ccc(C)cc4)c([C@H](OC(C)(C)C)C(=O)O)c(C)c3C2)c1` [Example 114, (S)-2-(tert-butoxy)-2-(2-(3-methoxybenzoyl)-4,7-dimethyl-6-(p-tolyl)isoindolin-5-yl)acetic acid] the IC50 was 5 nM.
Work on `Cc1cccc(C(=O)N2Cc3c(C)c(-c4cc(F)c5c(c4C)CCCO5)c([C@H](OC(C)(C)C)C(=O)O)c(C)c3C2)c1C` (atropisomer, axis not shown; (M)) [Example 193, (S)-2-(tert-butoxy)-2-((M)-2-(2,3-dimethylbenzoyl)-6-(8-fluoro-5-methylchroman-6-yl)-4,7-dimethylisoindolin-5-yl)acetic acid] yielded an IC50 of 5 nM.
For `CC(=O)N1CCN(C(=O)N2Cc3c(C)c(-c4ccc(C)cc4)c([C@H](OC(C)(C)C)C(=O)O)c(C)c3C2)CC1` [Example 85, (S)-2-(2-(4-acetylpiperazine-1-carbonyl)-4,7-dimethyl-6-(p-tolyl)isoindolin-5-yl)-2-(tert-butoxy)acetic acid], the IC50 was 120 nM.
Work on `Cc1ccc(-c2c(C)c3c(c(C)c2[C@H](OC(C)(C)C)C(=O)O)CN(C(=O)c2cc(F)c(Cl)c(F)c2)C3)cc1` [Example 282, (S)-2-(tert-butoxy)-2-(2-(4-chloro-3,5-difluorobenzoyl)-4,7-dimethyl-6-(p-tolyl)isoindolin-5-yl)acetic acid] yielded an IC50 of 7 nM.
`Cc1c2c(c(C)c([C@H](OC(C)(C)C)C(=O)O)c1-c1ccc3c(c1)CCCO3)CN(C(=O)c1cccc(F)c1)C2` [Example 304, (S)-2-(tert-butoxy)-2-(6-(chroman-6-yl)-2-(3-fluorobenzoyl)-4,7-dimethylisoindolin-5-yl)acetic acid] gave an IC50 of 4 nM.
With `Cc1ccc(-c2c(C)c3c(c(C)c2[C@H](OC(C)(C)C)C(=O)O)CN(C(=O)c2cc(Cl)ccc2C)C3)cc1` [Example 263, (S)-2-(tert-butoxy)-2-(2-(5-chloro-2-methylbenzoyl)-4,7-dimethyl-6-(p-tolyl)isoindolin-5-yl)acetic acid] the IC50 was 6 nM.
`Cc1ccc(-c2c(C)c3c(c(C)c2[C@H](OC(C)(C)C)C(=O)O)CN(C(=O)c2cocn2)C3)cc1` [Example 272, (S)-2-(tert-butoxy)-2-(4,7-dimethyl-2-(oxazole-4-carbonyl)-6-(p-tolyl)isoindolin-5-yl)acetic acid] was tested, and the IC50 was 86 nM.
In the case of `Cc1ccc(-c2c(C)c3c(c(C)c2[C@H](OC(C)(C)C)C(=O)O)CN(C(=O)c2ccc4c(c2)B(O)OC4)C3)cc1` [Example 256, (S)-2-(tert-butoxy)-2-(2-(1-hydroxy-1,3-dihydrobenzo[c][1,2]oxaborole-6-carbonyl)-4,7-dimethyl-6-(p-tolyl)isoindolin-5-yl)acetic acid], the IC50 is reported as 740 nM.
Work on `Cc1ccc(-c2c(C)c3c(c(C)c2[C@H](OC(C)(C)C)C(=O)O)CN(C(=O)c2cccnc2C)C3)cc1` [Example 259, (S)-2-(tert-butoxy)-2-(4,7-dimethyl-2-(2-methylnicotinoyl)-6-(p-tolyl)isoindolin-5-yl)acetic acid] yielded an IC50 of 20 nM.
Molecule `Cc1ccc(-c2c(C)c3c(c(C)c2[C@H](OC(C)(C)C)C(=O)O)CN(C(=O)c2cncs2)C3)cc1` [Example 269, (S)-2-(tert-butoxy)-2-(4,7-dimethyl-2-(thiazole-5-carbonyl)-6-(p-tolyl)isoindolin-5-yl)acetic acid] has an IC50 of 116 nM.
Molecule `Cc1c(-c2c(C)c3c(c(C)c2[C@H](OC(C)(C)C)C(=O)O)CN(C(=O)N2CCOC[C@@H]2C)C3)cc(F)c2c1CCCO2` (atropisomer, axis not shown; (M)) [Example 209, (S)-2-(tert-butoxy)-2-((M)-6-(8-fluoro-5-methylchroman-6-yl)-4,7-dimethyl-2-((S)-3-methylmorpholine-4-carbonyl)isoindolin-5-yl)acetic acid] has an IC50 of 23 nM.
With `COc1cc(C)ccc1C(=O)N1Cc2c(C)c(-c3cc(F)c4c(c3C)CCCO4)c([C@H](OC(C)(C)C)C(=O)O)c(C)c2C1` (atropisomer, axis not shown; (M)) [Example 200, (S)-2-(tert-butoxy)-2-((M)-6-(8-fluoro-5-methylchroman-6-yl)-2-(2-methoxy-4-methylbenzoyl)-4,7-dimethylisoindolin-5-yl)acetic acid] the IC50 was 11 nM.
`Cc1ccc(-c2c(C)c3c(c(C)c2[C@H](OC(C)(C)C)C(=O)O)CN(C(=O)N2CCC(F)(F)C2)C3)c(Cl)c1` [Example 314, (2S)-2-(tert-butoxy)-2-(6-(2-chloro-4-methylphenyl)-2-(3,3-difluoropyrrolidine-1-carbonyl)-4,7-dimethylisoindolin-5-yl)acetic acid] gave an IC50 of 4 nM.
In the case of `Cc1ccc(-c2c(C)c3c(c(C)c2[C@H](OC(C)(C)C)C(=O)O)CN(C(=O)N2CCC(C)(C)C2)C3)cc1` [Example 291, (S)-2-(tert-butoxy)-2-(2-(3,3-dimethylpyrrolidine-1-carbonyl)-4,7-dimethyl-6-(p-tolyl)isoindolin-5-yl)acetic acid], the IC50 is reported as 5 nM.
Work on `Cc1ccc(-c2c(C)c3c(c(C)c2[C@H](OC(C)(C)C)C(=O)O)CN(C(=O)C(C)(C)C)C3)cc1` [Example 109, (S)-2-(tert-butoxy)-2-(4,7-dimethyl-2-pivaloyl-6-(p-tolyl)isoindolin-5-yl)acetic acid] yielded an IC50 of 36 nM.
`Cc1ccc(-c2c(C)c3c(c(C)c2[C@H](OC(C)(C)C)C(=O)O)CN(C(=O)c2cccc4ccoc24)C3)cc1` [Example 167, (S)-2-(2-(benzofuran-7-carbonyl)-4,7-dimethyl-6-(p-tolyl)isoindolin-5-yl)-2-(tert-butoxy)acetic acid] was tested, and the IC50 was 4 nM.
`Cc1c(-c2c(C)c3c(c(C)c2[C@H](OC(C)(C)C)C(=O)O)CN(C(=O)c2cccc(F)c2)C3)cc(F)c2c1CCCO2` (atropisomer, axis not shown; (M)) [Example 103, (2S)-2-(tert-butoxy)-2-((M)6-(8-fluoro-5-methylchroman-6-yl)-2-(3-fluorobenzoyl)-4,7-dimethylisoindolin-5-yl)acetic acid] showed an IC50 of 2 nM.
Work on `Cc1ccc(-c2c(C)c3c(c(C)c2[C@H](OC(C)(C)C)C(=O)O)CN(Cc2ccc(Cl)c(Cl)c2)C3)cc1` [Example 26, (S)-2-(tert-butoxy)-2-(2-(3,4-dichlorobenzyl)-4,7-dimethyl-6-(p-tolyl)isoindolin-5-yl)acetic acid] yielded an IC50 of 54 nM.
`Cc1c(-c2c(C)c3c(c(C)c2[C@H](OC(C)(C)C)C(=O)O)CN(C(=O)c2cccc4c2CCC4)C3)cc(F)c2c1CCCO2` (atropisomer, axis not shown; (M)) [Example 161, (S)-2-(tert-butoxy)-2-(2-(2,3-dihydro-1H-indene-4-carbonyl)-6-((M)-8-fluoro-5-methylchroman-6-yl)-4,7-dimethylisoindolin-5-yl)acetic acid] gave an IC50 of 3 nM.
`Cc1ccc(-c2c(C)c3c(c(C)c2[C@H](OC(C)(C)C)C(=O)O)CN(C(=O)c2cc(F)c(Cl)c(Cl)c2)C3)cc1` [Example 277, (S)-2-(tert-butoxy)-2-(2-(3,4-dichloro-5-fluorobenzoyl)-4,7-dimethyl-6-(p-tolyl)isoindolin-5-yl)acetic acid] showed an IC50 of 14 nM.
`Cc1ccc(-c2c(C)c3c(c(C)c2[C@H](OC(C)(C)C)C(=O)O)CN(C2CCC(C)(C)CC2)C3)cc1` [Example 14, (S)-2-(tert-Butoxy)-2-(2-(4,4-dimethylcyclohexyl)-4,7-dimethyl-6-(p-tolyl)isoindolin-5-yl)acetic acid] showed an IC50 of 118 nM.
Work on `Cc1c2c(c(C)c([C@H](OC(C)(C)C)C(=O)O)c1-c1ccc(Cl)cc1)CN(C(=O)N1CCCCC1)C2` [Example 132, (S)-2-(tert-butoxy)-2-(6-(4-chlorophenyl)-4,7-dimethyl-2-(piperidine-1-carbonyl)isoindolin-5-yl)acetic acid] yielded an IC50 of 21 nM.
`Cc1ccc(-c2c(C)c3c(c(C)c2[C@H](OC(C)(C)C)C(=O)O)CN(C(=O)N(C)C2CCCCC2)C3)cc1` [Example 67, (2S)-2-(tert-butoxy)-2-{2-[cyclohexyl(methyl)carbamoyl]-4,7-dimethyl-6-(4-methylphenyl)-2,3-dihydro-1H-isoindol-5-yl}acetic acid] showed an IC50 of 55 nM.
For `Cc1ccc(-c2c(C)c3c(c(C)c2[C@H](OC(C)(C)C)C(=O)O)CN(C(=O)NCc2ccccc2)C3)cc1` [Example 34, (S)-2-(2-(benzylcarbamoyl)-4,7-dimethyl-6-(p-tolyl)isoindolin-5-yl)-2-(tert-butoxy)acetic acid], the IC50 was 86 nM.
Work on `COc1cccc(C(=O)N2Cc3c(C)c(-c4ccc(C)cc4)c([C@H](OC(C)(C)C)C(=O)O)c(C)c3C2)c1C` [Example 258, (S)-2-(tert-butoxy)-2-(2-(3-methoxy-2-methylbenzoyl)-4,7-dimethyl-6-(p-tolyl)isoindolin-5-yl)acetic acid] yielded an IC50 of 15 nM.
`Cc1ccc(-c2c(C)c3c(c(C)c2[C@H](OC(C)(C)C)C(=O)O)CN(C(=O)N2CCCC[C@@H]2C)C3)cc1` [Example 293, (S)-2-(tert-butoxy)-2-(4,7-dimethyl-2-((S)-2-methylpiperidine-1-carbonyl)-6-(p-tolyl)isoindolin-5-yl)acetic acid] was tested, and the IC50 was 4 nM.
`Cc1ccc(-c2c(C)c3c(c(C)c2[C@H](OC(C)(C)C)C(=O)O)CN(C(=O)N2CCC(F)(F)CC2)C3)cc1` [Example 92, (S)-2-(tert-butoxy)-2-(2-(4,4-difluoropiperidine-1-carbonyl)-4,7-dimethyl-6-(p-tolyl)isoindolin-5-yl)acetic acid] gave an IC50 of 16 nM.
`Cc1ccc(-c2c(C)c3c(c(C)c2[C@H](OC(C)(C)C)C(=O)O)CN(C(=O)N(C)C)C3)cc1` [Example 59, (2S)-2-(tert-butoxy)-2-[2-(dimethylcarbamoyl)-4,7-dimethyl-6-(4-methylphenyl)-2,3-dihydro-1H-isoindol-5-yl]acetic acid] showed an IC50 of 279 nM.

Reference: patent US10112899B2 (ViiV HEALTHCARE UK LIMITED, priority 2014, dated 2018)
